Laboratory results: patent publication US20030032580A1, “Use of agonists or antagonists of the 5-HT7 receptor to treat disorders of the bladder” (Synaptic Pharmaceutical Corporation, priority 1999, published 2003)
Where “and” joins values, the source holds several entries; their conditions need not be identical. Identical values can stand only once.

Tests used:
[1] = test system: rat urinary bladder strips; test: Isolated rat urinary bladder strips: agonist-evoked increase of electrically evoked, nerve-mediated contractions; assay type: cell-based; conditions: for effect on the magnitude of electrically evoked contractions: agonist alone, electrically stimulated rat bladder strips; for ability to modify the effects of 5-HT: 10 μM
From the text: 5-HT receptors in the rat urinary bladder which, when activated by serotonin agonists, cause increases in the magnitude of nerve-mediated contractions, were identified and characterized pharmacologically using isolated strips of rat bladder.
Urinary bladders were isolated from female CD rats (Charles Rivers, 250-300 g). The bladder base (lower third) was removed and the detrusor region was opened into a flat sheet by cutting from the basal opening to the apex. This was cut into quadrants, each of which was attached on its lateral edges by two tissue clips and suspended in a 5 ml tissue bath containing Krebs' solution (pH 7.4 37° C.) of the following composition (mM): NaCl (118), KCl (4.9), NaHCO3 (25), MgCl2 (1.2), NaHPO4 (1.0), CaCl2 (2.5), glucose (11) and aerated continuously with 95% O2/5% CO2. Except in initial experiments, prazosin (0.1 μM), idazoxan (0.3 μM), and indomethacin (10 μM) were included routinely in the buffer to block α1- and α2-adrenoceptors and to prevent the formation of prostaglandins, respectively. After allowing 30 min for equilibration, bladder strips were placed under 1.0 g resting tension, readjusted 6 times over the next 30 min. For most experiments contractile responses were evoked by transmural electrical impulses delivered by Grass S-88 (Grass Instruments, City, Mass.) stimulators (single pulses, 0.1 Hz, 1 ms pulse width, 90 V) through a pair of stainless steel electrodes. Contractions were measured using isometric force transducers (Radnotti Instruments, Monrovia, Calif.) and recorded using MacLab software (AD Instruments, Milford, Mass.).
Bladder strips, in Krebs' solution containing antagonist or vehicle, were stimulated at supramaximal voltage until contractions of consistent magnitude were obtained (ca. 30 min). During this period the Krebs' solution was exchanged at 15 min intervals. Cumulative concentration-effect curves were then constructed by administering 5-carboxamidotryptamine (5-CT) or other agonists in 0.5 log M increments. Responses are expressed as a percent of control, and represent agonist-evoked increases in the magnitude of the electrically evoked contractions relative to that in the absence of agonist (“control”, taken as 100%). […] Therefore, only a single agonist concentration-effect curve was constructed in each tissue.
Concentration-effect curves were fitted (Kaleidagraph, Synergy Software, PCS Inc., Reading PA) to 1-site or 2-site models of agonism as represented by the following equations:
(1-site): Effect=Emax[A]^n/[A]^n+EC50^n;
(2-site): Effect=(Emax^a[A]/[A]+EC50^a+(Emax^b[A]/[A]+EC50^b),
where Emax represents the maximum effect of the agonist, [A] is the agonist molar concentration, EC50 is the concentration of agonist eliciting half its maximum effect, n is the slope factor, and the italicized superscripts (a and b) denote values for the first and second phase of the biphasic curve. Antagonist pKB values were determined using the formula described by Furchgott (1972): pKB=log (agonist concentration ratio −1/antagonist concentration [M]. In some instances, pKB values were determined according to the method of Arunlakshana and Schild (1959), in which the slope of the Schild plot was constrained to unity. Concentration ratios for Schild analyses were calculated from mean EC50 values for the agonist in the absence and presence of the antagonist in experiments from n different animals.

5-HT1B = 5-HT1B (Rattus norvegicus, UniProt P28564); conditions: Hoyer, 1989; Hoyer et al., 1994; cited from earlier work
5-HT2A = 5-HT2A (Homo sapiens, UniProt P28223); conditions: Hoyer, 1989; Hoyer et al., 1994; cited from earlier work
5-HT6 = 5-HT6 (Rattus norvegicus, UniProt P31388); conditions: Hoyer et al., 1994; cited from earlier work
5-HT1A = target: T1, 5-HT1A (Homo sapiens, UniProt P08908); conditions: Hoyer, 1989; cited from earlier work
T1 sequence (P08908 1-422): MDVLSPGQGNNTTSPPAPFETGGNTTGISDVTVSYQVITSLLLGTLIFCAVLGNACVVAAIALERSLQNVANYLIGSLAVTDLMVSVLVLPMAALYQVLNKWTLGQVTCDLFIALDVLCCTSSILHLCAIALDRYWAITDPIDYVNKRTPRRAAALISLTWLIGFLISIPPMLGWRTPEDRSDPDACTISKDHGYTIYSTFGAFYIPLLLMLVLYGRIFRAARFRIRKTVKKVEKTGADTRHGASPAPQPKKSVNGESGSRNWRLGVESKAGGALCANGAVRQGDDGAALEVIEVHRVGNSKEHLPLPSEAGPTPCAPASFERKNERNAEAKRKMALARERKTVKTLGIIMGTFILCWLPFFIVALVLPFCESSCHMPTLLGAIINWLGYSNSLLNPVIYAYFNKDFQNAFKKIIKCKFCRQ

5-HT1F = target: T2, 5-HT1F (Homo sapiens, UniProt P30939); conditions: Adham et al., 1993; cited from earlier work
T2 sequence (P30939 1-366): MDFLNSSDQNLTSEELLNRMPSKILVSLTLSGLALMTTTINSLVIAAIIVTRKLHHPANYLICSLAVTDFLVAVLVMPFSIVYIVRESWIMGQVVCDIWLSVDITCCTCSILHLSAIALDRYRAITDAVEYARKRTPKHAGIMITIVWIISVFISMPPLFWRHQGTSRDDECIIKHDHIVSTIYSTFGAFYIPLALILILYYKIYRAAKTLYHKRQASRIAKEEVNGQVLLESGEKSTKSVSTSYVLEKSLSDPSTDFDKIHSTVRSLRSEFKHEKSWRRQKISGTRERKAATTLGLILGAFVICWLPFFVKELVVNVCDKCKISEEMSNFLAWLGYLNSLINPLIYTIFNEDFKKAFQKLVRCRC

[2] = target: cloned rat 5-HT7 receptor (Rattus norvegicus, UniProt P32305); conditions: references 2 and 3; cited from earlier work
[3] = target: T3, 5-HT2B receptor (second phase of the concentration-effect curve to 5-CT in the rat bladder) (Rattus norvegicus, UniProt P30994); test: Electrically stimulated rat bladder strips: second (low potency) phase of the concentration-effect curve to 5-CT; assay type: cell-based; conditions: for effect on low potency responses to 5-CT: pindolol 1 μM, tropisetron 10 μM, ketanserin 0.1 μM
T3 construct: from tissue; host or cells: rat urinary bladder detrusor strips

[4] = target: T4, 5-HT7 receptor (first phase of the concentration-effect curve to 5-CT in the rat bladder) (Rattus norvegicus, UniProt P32305); test: Electrically stimulated rat bladder strips: first (high potency) phase of the concentration-effect curve to 5-CT; assay type: cell-based; conditions: for effect on high potency responses to 5-CT: pindolol 1 μM, tropisetron 10 μM, ketanserin 0.1 μM
T4 construct: from tissue; host or cells: rat urinary bladder detrusor strips

[5] = test system: rat bladder strips (postjunctional response to α,β-methylene-ATP); assay type: cell-based; conditions: 0.1 and 10 μM; 5 minute incubation; tetrodotoxin 0.1 μM; α,β-methylene-ATP 3 μM
5-HT1D = conditions: Hoyer, 1989; Hoyer et al., 1994; cited from earlier work
5-HT1E = 5-HT1E (Homo sapiens, UniProt P28566); conditions: Adham et al., 1993; cited from earlier work
5-HT5A = conditions: Hoyer et al., 1994; cited from earlier work
5-HT2C = target: T5, 5-HT2C (Homo sapiens, UniProt P28335); conditions: Hoyer, 1989; Hoyer et al., 1994; cited from earlier work
T5 sequence (P28335 33-458): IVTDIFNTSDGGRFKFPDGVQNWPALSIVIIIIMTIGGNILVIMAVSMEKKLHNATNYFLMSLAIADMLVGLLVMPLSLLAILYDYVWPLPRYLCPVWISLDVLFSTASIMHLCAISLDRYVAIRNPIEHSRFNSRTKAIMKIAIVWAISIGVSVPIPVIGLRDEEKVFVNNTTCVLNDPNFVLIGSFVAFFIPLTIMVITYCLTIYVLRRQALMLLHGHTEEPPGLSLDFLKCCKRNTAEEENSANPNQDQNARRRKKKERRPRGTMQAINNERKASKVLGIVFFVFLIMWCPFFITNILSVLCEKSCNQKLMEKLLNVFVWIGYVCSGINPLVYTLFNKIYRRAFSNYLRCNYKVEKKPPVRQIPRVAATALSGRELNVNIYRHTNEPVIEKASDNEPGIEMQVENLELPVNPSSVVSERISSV

[6] = target: cloned rat 5-HT2B receptor (Rattus norvegicus, UniProt P30994); conditions: cited from earlier work
[7] = target: cloned human 5-HT7 receptor (Homo sapiens, UniProt P34969); conditions: cited from earlier work; for pK1: cloned human 5-HT7 receptor, references 1 and 4
[8] = bladder pKB versus published value
[9] = bladder pKB versus published values

Sequence of cloned human 5-HT7 receptor (P34969 1-445 isoform P34969-2): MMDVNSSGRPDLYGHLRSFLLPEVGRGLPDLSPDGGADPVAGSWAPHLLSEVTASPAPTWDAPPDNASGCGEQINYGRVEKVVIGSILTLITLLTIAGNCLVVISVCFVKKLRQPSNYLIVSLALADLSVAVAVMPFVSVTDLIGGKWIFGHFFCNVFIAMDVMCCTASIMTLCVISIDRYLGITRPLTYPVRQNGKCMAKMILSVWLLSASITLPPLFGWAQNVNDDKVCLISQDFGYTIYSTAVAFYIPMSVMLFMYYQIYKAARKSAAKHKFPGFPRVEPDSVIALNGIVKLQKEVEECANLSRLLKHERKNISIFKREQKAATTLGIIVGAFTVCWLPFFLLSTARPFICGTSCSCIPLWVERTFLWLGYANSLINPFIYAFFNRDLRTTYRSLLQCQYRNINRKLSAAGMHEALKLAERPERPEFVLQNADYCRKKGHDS
Sequence of cloned rat 5-HT7 receptor (P32305 whole entry): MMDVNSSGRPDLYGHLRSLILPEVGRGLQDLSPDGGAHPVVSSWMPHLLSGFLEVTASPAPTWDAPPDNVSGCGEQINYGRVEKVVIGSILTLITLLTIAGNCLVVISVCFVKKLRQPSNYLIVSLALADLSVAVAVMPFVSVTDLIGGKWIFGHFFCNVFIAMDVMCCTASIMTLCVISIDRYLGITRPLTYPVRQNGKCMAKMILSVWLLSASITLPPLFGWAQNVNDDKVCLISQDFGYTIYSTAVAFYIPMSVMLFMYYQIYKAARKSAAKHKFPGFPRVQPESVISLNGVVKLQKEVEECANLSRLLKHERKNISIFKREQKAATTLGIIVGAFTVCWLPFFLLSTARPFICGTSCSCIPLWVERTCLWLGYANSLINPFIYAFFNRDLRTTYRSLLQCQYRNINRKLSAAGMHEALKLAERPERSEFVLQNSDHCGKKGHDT
T4 sequence (P32305 whole entry): as above
T3 sequence (P30994 whole entry): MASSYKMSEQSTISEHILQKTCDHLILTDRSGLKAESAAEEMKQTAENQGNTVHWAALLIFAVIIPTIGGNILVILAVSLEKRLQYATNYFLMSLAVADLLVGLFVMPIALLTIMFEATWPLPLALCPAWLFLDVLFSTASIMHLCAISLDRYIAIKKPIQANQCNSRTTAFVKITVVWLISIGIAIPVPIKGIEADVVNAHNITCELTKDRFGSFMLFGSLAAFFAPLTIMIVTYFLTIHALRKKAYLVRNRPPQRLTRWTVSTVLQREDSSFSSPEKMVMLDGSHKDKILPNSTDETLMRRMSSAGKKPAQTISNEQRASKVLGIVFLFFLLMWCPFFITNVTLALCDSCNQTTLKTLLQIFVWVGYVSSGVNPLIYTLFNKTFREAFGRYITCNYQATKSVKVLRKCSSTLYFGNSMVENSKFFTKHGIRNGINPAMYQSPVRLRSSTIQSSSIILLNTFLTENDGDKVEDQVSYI
Sequence of 5-HT1B (P28564 whole entry): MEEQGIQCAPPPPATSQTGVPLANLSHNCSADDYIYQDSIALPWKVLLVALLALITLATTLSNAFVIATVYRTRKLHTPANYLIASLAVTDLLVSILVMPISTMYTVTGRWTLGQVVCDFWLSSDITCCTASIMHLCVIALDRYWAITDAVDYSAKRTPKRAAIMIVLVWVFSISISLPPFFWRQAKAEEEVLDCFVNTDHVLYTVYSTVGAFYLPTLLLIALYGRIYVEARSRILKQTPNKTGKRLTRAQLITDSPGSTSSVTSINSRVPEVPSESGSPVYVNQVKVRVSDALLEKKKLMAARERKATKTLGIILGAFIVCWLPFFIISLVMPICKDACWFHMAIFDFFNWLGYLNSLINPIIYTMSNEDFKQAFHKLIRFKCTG
Sequence of cloned rat 5-HT2B receptor (P30994 whole entry): as the sequence (P30994 whole entry) above
Sequence of 5-HT2A (P28223 whole entry, species assumed): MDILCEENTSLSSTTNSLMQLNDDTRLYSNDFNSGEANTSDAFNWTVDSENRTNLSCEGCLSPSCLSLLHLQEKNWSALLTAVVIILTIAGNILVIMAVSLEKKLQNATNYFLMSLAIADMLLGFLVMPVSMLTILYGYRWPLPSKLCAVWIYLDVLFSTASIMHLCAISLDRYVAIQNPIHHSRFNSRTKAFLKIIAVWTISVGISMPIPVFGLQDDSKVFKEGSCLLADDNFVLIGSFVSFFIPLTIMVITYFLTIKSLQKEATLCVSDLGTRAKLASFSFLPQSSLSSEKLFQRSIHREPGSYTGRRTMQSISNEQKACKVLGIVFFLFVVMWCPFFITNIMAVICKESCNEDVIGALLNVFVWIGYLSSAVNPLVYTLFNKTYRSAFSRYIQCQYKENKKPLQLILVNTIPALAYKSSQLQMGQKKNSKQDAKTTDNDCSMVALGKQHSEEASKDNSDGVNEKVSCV
Sequence of 5-HT1E (P28566 whole entry): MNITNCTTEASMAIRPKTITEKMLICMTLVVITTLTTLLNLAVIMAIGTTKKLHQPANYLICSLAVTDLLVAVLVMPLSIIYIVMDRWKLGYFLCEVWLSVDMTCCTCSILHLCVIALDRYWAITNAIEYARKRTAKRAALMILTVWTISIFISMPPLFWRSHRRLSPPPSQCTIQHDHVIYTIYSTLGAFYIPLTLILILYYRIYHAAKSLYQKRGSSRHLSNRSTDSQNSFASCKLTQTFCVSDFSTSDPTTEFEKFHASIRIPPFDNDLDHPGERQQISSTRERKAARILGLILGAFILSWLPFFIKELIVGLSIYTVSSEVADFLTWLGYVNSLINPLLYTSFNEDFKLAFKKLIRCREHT
Sequence of 5-HT6 (P31388 whole entry): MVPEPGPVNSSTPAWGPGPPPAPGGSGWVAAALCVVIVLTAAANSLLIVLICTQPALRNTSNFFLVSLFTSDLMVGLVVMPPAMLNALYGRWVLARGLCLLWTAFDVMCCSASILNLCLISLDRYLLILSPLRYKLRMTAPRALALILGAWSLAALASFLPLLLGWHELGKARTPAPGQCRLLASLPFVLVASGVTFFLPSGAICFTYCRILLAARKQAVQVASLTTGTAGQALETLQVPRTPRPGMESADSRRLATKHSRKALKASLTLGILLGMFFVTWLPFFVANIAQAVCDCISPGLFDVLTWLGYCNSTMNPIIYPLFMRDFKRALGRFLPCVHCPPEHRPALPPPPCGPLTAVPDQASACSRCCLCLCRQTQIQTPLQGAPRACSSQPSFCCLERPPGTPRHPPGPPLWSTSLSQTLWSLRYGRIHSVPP

CCCN(CCC)CCc1c[nH]c2ccc(C(N)=O)cc12 [DP-5-CT]
effect on the magnitude of electrically evoked contractions [1]: mimicked

CN1C[C@@H](NS(=O)(=O)N(C)C)C[C@@H]2c3cccc4c3c(cn4C)C[C@H]21 [mesulergine]
pKB, 5-HT1B (5-HT1B): 4.9
pKB, 5-HT2A (5-HT2A): 9.1
pKB, 5-HT6 (5-HT6): 5.8
pKB, 5-HT1A (5-HT1A): 6.2
pKB, 5-HT1F (5-HT1F): < 5

COc1ccc2[nH]cc(CCN)c2c1 [5-MeOT]
effect on the magnitude of electrically evoked contractions [1]: mimicked

CC(C)n1c(=O)n(C(=O)NC2CC3CCC(C2)N3C)c2ccccc21 (stereo not drawn) [BIMU-8]
ability to modify the effects of 5-HT [1]: failure
effect on the magnitude of electrically evoked contractions [1]: inactive

CCCN(CCC)C1CCc2cccc(O)c2C1 (stereo not drawn) [8-OH-DPAT]
ability to modify the effects of 5-HT [1]: failure
effect on the magnitude of electrically evoked contractions [1]: inactive

CC(C)NCC(O)COc1cccc2[nH]ccc12 (single isomer, unassigned) [pindolol]
pK1 [2]: <6
effect on low potency responses to 5-CT [3]: not affected
effect on high potency responses to 5-CT [4]: not affected

NCCc1c[nH]c2ccc(C(N)=O)cc12 [5-CT, 5-carboxamidotryptamine]
EC50 [3]: 0.158 µM
difference in EC50 values between first and second phase [1]: 100 fold
effect on the magnitude of electrically evoked contractions [1]: mimicked
EC50 [4]: 0.00158 µM
effect on the magnitude of a subsequent contraction to α,β-methylene-ATP [5]: failed to significantly modify

CC(N)Cc1c[nH]c2ccc(O)cc12 (stereo not drawn) [α-Me-5-HT, α-methyl-5-hydroxytryptamine]
effect on the magnitude of electrically evoked contractions [1]: mimicked

O=C(c1ccc(F)cc1)C1CCN(CCn2c(=O)[nH]c3ccccc3c2=O)CC1 [ketanserin]
pK1 [2]: 5.6
effect on low potency responses to 5-CT [3]: not affected
effect on high potency responses to 5-CT [4]: not affected

CN1[C@@H]2CC[C@H]1C[C@@H](OC(=O)c1c[nH]c3ccccc13)C2 [tropisetron]
pK1 [2]: <4.5
effect on low potency responses to 5-CT [3]: not affected
effect on high potency responses to 5-CT [4]: not affected

CSc1ccc2c(c1)C(N1CCN(C)CC1)Cc1ccccc1S2 (stereo not drawn) [methiothepin]
pKB, 5-HT1B (5-HT1B): 7.3
pKB, 5-HT1D (5-HT1D): 7.3
pKB, 5-HT1E (5-HT1E): 6.7
pKB, 5-HT1F (5-HT1F): 6.2
pKB, 5-HT5A (5-HT5A): 7.0

O=C(CCCN1CCC2(CC1)C(=O)NCN2c1ccccc1)c1ccc(F)cc1 [spiperone]
pKB, 5-HT1B (5-HT1B): 4.4
pKB, 5-HT1D (5-HT1D): 4.8
first-phase affinity greater than that for the 5-HT2C receptor subtype [4, 8]: ~30 fold
first-phase affinity lower than that for the 5-HT2A receptor subtype [4, 8]: ~30 fold
first-phase affinity greater than that for 5-HT1B, 5-HT1D, 5-HT5A and 5-HT2B receptor subtype [4, 9]: at least 100 fold
pKB, 5-HT2C (5-HT2C): 5.9
pKB, 5-HT5A (5-HT5A): 5.6

c1ccc2c(N3CCNCC3)cccc2c1 [1-NP, 1-(1-naphthyl)piperazine]
Kb [3]: 0.00316 µM
shift of the low potency (second) phase of the concentration-effect curve ([3]; 0.1 μM): 100 fold
second-phase affinity greater than affinity for 5-HT1A, 5-HT1B, 5-HT1E, 5-HT2A and 5-HT7 subtypes [3, 9]: at least 10 fold
slope of Schild analysis ([3]; second phase, 0.01 to 1.0 μM): unit slope
pKB, 5-HT1B (5-HT1B): 6.6
pKB, 5-HT2A (5-HT2A): 7.2
pKB, 5-HT2B ([6]; Wainscott et al., 1993): 8.3
pK1 ([6]; cloned rat 5-HT2B receptor, reference 1 (Wainscott et al., 1993)): 8.3-8.7
pKB, 5-HT1E (5-HT1E): 6.7
effect on the high potency (first) phase of the curve ([4]; 0.1 μM): no effect
rightward shift of the first phase of the response to 5-CT ([4]; 1.0 μM): 6.8 ±0.54 fold
Kb ([4]; pKB, inhibition of the first phase of the concentration-effect curve to 5-CT in the rat bladder, antagonists tested in the presence of 0.1 μM 1-NP): 0.158 µM and 0.251 µM
pKB, 5-HT1A (5-HT1A): 7.2
pKB, 5-HT2C (5-HT2C): 8.2
pKB, 5-HT7 ([7]; Bard et al., 1993): 7.1
pK1 [7]: 7.1

CC(C)n1cc2c3c(cccc31)C1C[C@@H](C(=O)N[C@H]3CCC[C@H]3O)CN(C)[C@@H]1C2 (stereo partly drawn) [LY215840]
pKB ([4]; inhibition of the first phase of the concentration-effect curve to 5-CT in the rat bladder, antagonists tested in the presence of 0.1 μM 1-NP): 8.2
pK1 [7]: 7.8

NCCc1c[nH]c2ccc(O)cc12 [5-HT, 5-hydroxytryptamine]
effect on the magnitude of electrically evoked contractions [1]: marked increases
